This is an account of results in the Kinase Knowledgebase extract (Sharma et al. 2016).

The IC50 is the concentration that gives 50% inhibition.

The target in the test is PIK3CA (human) (UniProt P42336). Kind of test: Cell-Based Assay. The settings on record: bt20.
Chain of PIK3CA (human) (P42336 whole entry, looked up): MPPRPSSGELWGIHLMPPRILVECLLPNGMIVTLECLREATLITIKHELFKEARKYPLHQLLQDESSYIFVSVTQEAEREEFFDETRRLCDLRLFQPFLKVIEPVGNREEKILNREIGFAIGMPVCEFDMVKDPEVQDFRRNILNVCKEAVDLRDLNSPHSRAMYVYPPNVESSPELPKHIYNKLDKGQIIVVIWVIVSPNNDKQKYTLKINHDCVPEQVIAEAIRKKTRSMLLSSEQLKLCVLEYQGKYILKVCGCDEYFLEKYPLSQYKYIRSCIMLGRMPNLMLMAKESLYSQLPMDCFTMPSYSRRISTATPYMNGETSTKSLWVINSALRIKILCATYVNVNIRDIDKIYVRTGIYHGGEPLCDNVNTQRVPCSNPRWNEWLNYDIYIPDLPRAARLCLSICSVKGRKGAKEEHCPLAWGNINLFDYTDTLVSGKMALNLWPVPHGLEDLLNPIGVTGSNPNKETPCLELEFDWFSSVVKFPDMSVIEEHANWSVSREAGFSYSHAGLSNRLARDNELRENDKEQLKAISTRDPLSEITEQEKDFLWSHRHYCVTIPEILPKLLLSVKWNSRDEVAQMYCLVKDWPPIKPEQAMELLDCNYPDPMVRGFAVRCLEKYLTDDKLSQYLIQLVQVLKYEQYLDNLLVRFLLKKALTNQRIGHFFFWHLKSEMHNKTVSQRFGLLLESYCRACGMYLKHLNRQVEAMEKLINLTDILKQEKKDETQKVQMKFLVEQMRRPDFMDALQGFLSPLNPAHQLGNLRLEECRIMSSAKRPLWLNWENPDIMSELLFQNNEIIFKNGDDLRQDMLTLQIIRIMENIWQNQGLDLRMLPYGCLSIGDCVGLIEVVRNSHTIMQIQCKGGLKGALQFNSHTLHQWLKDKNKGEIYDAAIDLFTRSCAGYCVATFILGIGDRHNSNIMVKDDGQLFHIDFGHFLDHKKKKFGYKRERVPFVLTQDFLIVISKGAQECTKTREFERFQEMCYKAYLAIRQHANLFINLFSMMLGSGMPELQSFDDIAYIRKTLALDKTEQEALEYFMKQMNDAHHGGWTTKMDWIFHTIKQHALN
`CC(C)OC(=O)N1CCC(n2c(=O)n(C)c3cnc4ccc(-c5cnc6ccccc6c5)nc4c32)CC1`: the IC50 was found to be 19.6 nM.

Consider `CNC(=O)N1CCC(n2c(=O)n(C)c3cnc4ccc(-c5ccc(OC)nc5)nc4c32)CC1`, for which the concentration for half-maximal inhibition (IC50) came out at 9.19 nM.

The compound `CC(=O)N1CCC(n2c(=O)n(C)c3cnc4ccc(-c5cccc6ncccc56)nc4c32)CC1` had an IC50 of 194 nM.

In turn, `Cn1cc(-c2ccc3ncc4c(c3n2)n(C2CCN(CC(N)=O)CC2)c(=O)n4C)cn1` registered a 50% inhibitory concentration (IC50) of 232 nM.

`CN(C)c1ccc(-c2ccc3ncc4c(c3n2)n(C2CCNCC2)c(=O)n4C)cn1` gave an IC50 of 24.6 nM.

`Cn1cc(-c2ccc3ncc4c(c3n2)n([C@H]2CC[C@H](O)CC2)c(=O)n4C)cn1` showed an IC50 of 107 nM.

In turn, `Cn1c(=O)n(-c2ccc(C(C)(C)C#N)cc2)c2c3nc(-c4cnc5ccccc5c4)ccc3ncc21` returned an IC50 of 3.54 nM.

`COc1ncc(-c2ccc3ncc4c(c3n2)n([C@H]2CC[C@H](OCCO)CC2)c(=O)n4C)cn1` gave an IC50 of 26.3 nM.

With `Cn1c(=O)n(C2CCN(C(=O)CO)CC2)c2c3nc(-c4cnc5[nH]ncc5c4)ccc3ncc21`, the half-maximal inhibitory concentration (IC50) worked out at 59.4 nM.

`COc1ncc(-c2ccc3ncc4c(c3n2)n(C2CCNCC2)c(=O)n4C)cn1` registered an IC50 of 333 nM.

In turn, `COCCN1CCC(n2c(=O)n(C)c3cnc4ccc(-c5ccc(N(C)C)nc5)nc4c32)CC1` had a half-maximal inhibitory concentration (IC50) of 31.8 nM.

On to `CN(C)c1ccc(-c2ccc3ncc4c(c3n2)n(C2CCOCC2)c(=O)n4C)cn1`, for which the half-inhibitory concentration (IC50) came to 29 nM.

Take `CN(C)c1ccc(-c2ccc3ncc4c(c3n2)n(C2CCN(CCO)CC2)c(=O)n4C)cn1`: the IC50 stood at 32.5 nM.

Take `Cn1c(=O)n([C@H]2CC[C@H](O)CC2)c2c3nc(-c4cnc5ccccc5c4)ccc3ncc21`: the concentration for half-maximal inhibition (IC50) turned out to be 5.21 nM.

For `CNC(=O)N1CCC(n2c(=O)n(C)c3cnc4ccc(-c5ccc(N(C)C)nc5)nc4c32)CC1`, the IC50 worked out at 24.3 nM.

Compound `Cn1c(=O)n([C@H]2CC[C@H](O)CC2)c2c3nc(-c4cc[nH]n4)ccc3ncc21` registered an IC50 of 264 nM.

The compound `CN(C)c1ccc(-c2ccc3ncc4c(c3n2)n([C@H]2CC[C@H](O)CC2)c(=O)n4C)cn1` registered an IC50 of 5.26 nM.

Regarding `CN(C)c1ccc(-c2ccc3ncc4c(c3n2)n([C@H]2CC[C@H](OCCO)CC2)c(=O)n4C)cn1`, the IC50 is 11.6 nM.

Compound `CC(C)C(=O)N1CCC(n2c(=O)n(C)c3cnc4ccc(-c5cnc6ccccc6c5)nc4c32)CC1` returned a half-maximal inhibitory concentration (IC50) of 29.4 nM.

For `CN(C)c1ccc(-c2ccc3ncc4c(c3n2)n(C2CCN(C(N)=O)CC2)c(=O)n4C)cn1`, the IC50 came out at 35.8 nM.

`Cn1cc(-c2ccc3ncc4c(c3n2)n([C@H]2CC[C@H](C(N)=O)CC2)c(=O)n4C)cn1` displayed an IC50 of 224 nM.

On to `Cn1c(=O)n([C@H]2CC[C@H](O)CC2)c2c3nc(-c4cn[nH]c4)ccc3ncc21`, for which the half-inhibitory concentration (IC50) came out at 19.7 nM.

`CCC(=O)N1CCC(n2c(=O)n(C)c3cnc4ccc(-c5cnc6ccccc6c5)nc4c32)CC1` gave a concentration for half-maximal inhibition (IC50) of 7.86 nM.

In turn, `Cn1c(=O)n([C@H]2CC[C@H](O)CC2)c2c3nc(-c4cnn(CCO)c4)ccc3ncc21` had an IC50 of 448 nM.

With `COc1ccc(-c2ccc3ncc4[nH]c(=O)n([C@H]5CC[C@H](OCCO)CC5)c4c3n2)cn1`, the IC50 was 38.4 nM.

As to `CNC(=O)N1CCC(n2c(=O)n(C)c3cnc4ccc(-c5cnc6ccccc6c5)nc4c32)CC1`, the half-maximal inhibitory concentration (IC50) stood at 7.34 nM.

As to `COc1ncc(-c2ccc3ncc4c(c3n2)n(C2CCN(C(=O)[C@H](C)O)CC2)c(=O)n4C)cn1`, the IC50 was found to be 34.2 nM.

As for `COc1ccc(-c2ccc3ncc4c(c3n2)n([C@H](C)CO)c(=O)n4C)cn1`, the half-inhibitory concentration (IC50) is 237 nM.

As for `CN(C)c1ccc(-c2ccc3ncc4c(c3n2)n(C2CCN(C(=O)C(C)(C)C)CC2)c(=O)n4C)cn1`, the concentration for half-maximal inhibition (IC50) was determined as 21.4 nM.

Turning to `Cn1cc(-c2ccc3ncc4c(c3n2)n(C2CCN(C(=O)C(C)(C)O)CC2)c(=O)n4C)cn1`, the half-maximal inhibitory concentration (IC50) is 30.4 nM.

As for `CN(C)CC(=O)N1CCC(n2c(=O)n(C)c3cnc4ccc(-c5ccc(N(C)C)nc5)nc4c32)CC1`, the IC50 was 15.3 nM.

With `Cc1ccc(-c2ccc3ncc4c(c3n2)n(C2CCOCC2)c(=O)n4CCO)cn1`, the concentration for half-maximal inhibition (IC50) was found to be 428 nM.

With `CCNC(=O)N1CCC(n2c(=O)n(C)c3cnc4ccc(-c5cnc6ccccc6c5)nc4c32)CC1`, the concentration for half-maximal inhibition (IC50) was 17 nM.

In turn, `CN(C)c1ccc(-c2ccc3ncc4[nH]c(=O)n(-c5ccc(C(C)(C)C#N)cc5)c4c3n2)cn1` had an IC50 of 67.6 nM.

The compound `C[C@H](CO)n1c(=O)n(C)c2cnc3ccc(-c4cnc(N)nc4)nc3c21` returned an IC50 of 331 nM.

With `COc1ccc(-c2ccc3ncc4c(c3n2)n(C2CCN(C(=O)[C@H](C)O)CC2)c(=O)n4C)cc1`, the IC50 amounted to 14 nM.

The compound `COc1ccc(-c2ccc3ncc4c(c3n2)n(CCN2CCNCC2)c(=O)n4C)cn1` yielded an IC50 of 344 nM.

For the compound `Cn1c(=O)n([C@H]2CC[C@H](O)CC2)c2c3nc(-c4ccc5[nH]ncc5c4)ccc3ncc21`, the concentration for half-maximal inhibition (IC50) came to 20.5 nM.

As for `COc1ccc(-c2ccc3ncc4c(c3n2)n(C2CCN(CC(N)=O)CC2)c(=O)n4C)cn1`, the IC50 came to 7.14 nM.

`O=C(OCc1ccccc1)N1CCC(n2c(=O)[nH]c3cnc4ccc(-c5cnc6ccccc6c5)nc4c32)CC1`: the IC50 amounted to 32.2 nM.

`COc1ccc(-c2ccc3ncc4c(c3n2)n([C@@H](C)CO)c(=O)n4C)cn1` came in with an IC50 of 266 nM.

Regarding `Cn1cc(-c2ccc3ncc4[nH]c(=O)n(-c5ccc(C(C)(C)C#N)cc5)c4c3n2)cn1`, the concentration for half-maximal inhibition (IC50) came to 97.3 nM.

As for `COc1ncc(-c2ccc3ncc4c(c3n2)n(C2CCN(CC(N)=O)CC2)c(=O)n4C)cn1`, the IC50 worked out at 90.3 nM.

Compound `CN1CCC(n2c(=O)n(C)c3cnc4ccc(-c5cnc6ccccc6c5)nc4c32)CC1` showed an IC50 of 11.7 nM.

With `Cn1cc(-c2ccc3ncc4c(c3n2)n(C2CCOCC2)c(=O)n4C)cn1`, the half-inhibitory concentration (IC50) stood at 71.8 nM.

The compound `COc1ccc(-c2ccc3ncc4c(c3n2)n(C2CCN(C(C)=O)CC2)c(=O)n4C)cc1` yielded an IC50 of 11.3 nM.

`C[C@H](CO)n1c(=O)n(C)c2cnc3ccc(-c4cnc5[nH]ncc5c4)nc3c21` displayed a half-maximal inhibitory concentration (IC50) of 83.8 nM.

Consider `CN[C@H]1CC[C@H](n2c(=O)n(C)c3cnc4ccc(-c5cnc6ccccc6c5)nc4c32)CC1`, for which the IC50 worked out at 404 nM.

`CNC(=O)N1CCC(n2c(=O)n(C)c3cnc4ccc(-c5cnc(OC)nc5)nc4c32)CC1` showed a half-inhibitory concentration (IC50) of 68.1 nM.

In the case of `CN(C)c1ccc(-c2ccc3ncc4c(c3n2)n(C2CCN(CC(F)(F)F)CC2)c(=O)n4C)cn1`, the half-inhibitory concentration (IC50) was found to be 18.2 nM.

`Cc1ccc(-c2ccc3ncc4c(c3n2)n(C2CCN(c3ncccn3)CC2)c(=O)n4C)cn1` had an IC50 of 41.4 nM.

As for `Cn1c(=O)n(C2CCNCC2)c2c3nc(-c4cnn(CCO)c4)ccc3ncc21`, the half-inhibitory concentration (IC50) was found to be 3210 nM.

The compound `Cc1ccc(-c2ccc3ncc4c(c3n2)n(C2CCN(C(N)=O)CC2)c(=O)n4C)cn1` showed a half-maximal inhibitory concentration (IC50) of 112 nM.

As for `COc1cccc(-c2ccc3ncc4c(c3n2)n(C2CCN(C(C)=O)CC2)c(=O)n4C)c1`, the IC50 was found to be 57.7 nM.

The compound `Cn1c(=O)n([C@H]2CC[C@H](O)CC2)c2c3nc(-c4cccc5[nH]ccc45)ccc3ncc21` showed an IC50 of 9.61 nM.

Regarding `Cn1c(=O)n(C2CCN(C(=O)CO)CC2)c2c3nc(-c4cccc5[nH]ncc45)ccc3ncc21`, the IC50 was 60.4 nM.

Take `COc1ncc(-c2ccc3ncc4c(c3n2)n(-c2ccc(C(C)(C)C#N)cc2)c(=O)n4C)cn1`: the IC50 amounted to 27.2 nM.

Take `COc1ccc(-c2ccc3ncc4[nH]c(=O)n([C@H]5CC[C@H](O)CC5)c4c3n2)cn1`: the IC50 was found to be 46.8 nM.

For `C[C@@H](O)C(=O)N1CCC(n2c(=O)n(C)c3cnc4ccc(-c5ccc(N(C)C)nc5)nc4c32)CC1`, the 50% inhibitory concentration (IC50) is 5.53 nM.

Consider `C[C@@H](O)C(=O)N1CCC(n2c(=O)n(C)c3cnc4ccc(-c5cnc6[nH]ncc6c5)nc4c32)CC1`, for which the half-maximal inhibitory concentration (IC50) stood at 29.4 nM.

On to `CN(C)c1ccc(-c2ccc3ncc4c(c3n2)n(C2CCN(C(=O)CO)CC2)c(=O)n4C)cn1`, for which the half-maximal inhibitory concentration (IC50) is 6.23 nM.

Regarding `Cn1c(=O)n([C@H]2CC[C@H](OCCO)CC2)c2c3nc(-c4cnc5ccccc5c4)ccc3ncc21`, the IC50 stood at 10.7 nM.

`COc1ncc(-c2ccc3ncc4c(c3n2)n(C2CCN(C(C)=O)CC2)c(=O)n4C)cn1` yielded a concentration for half-maximal inhibition (IC50) of 34.6 nM.

As to `COc1ccc(-c2ccc3ncc4[nH]c(=O)n(Cc5ccccc5)c4c3n2)cn1`, the IC50 stood at 24.5 nM.

Regarding `CC(C)(C#N)c1ccc(-n2c(=O)[nH]c3cnc4ccc(-c5cnc6ccccc6c5)nc4c32)cc1`, the IC50 came out at 6.47 nM.

Turning to `COc1ccc(-c2ccc3ncc4c(c3n2)n(C2CCN(C(C)C)CC2)c(=O)n4C)cn1`, the IC50 was 55.1 nM.

Regarding `CC(=O)N1CCC(n2c(=O)n(C)c3cnc4ccc(-c5cnn(C)c5)nc4c32)CC1`, the IC50 was found to be 133 nM.

`Cc1ccc(-c2ccc3ncc4c(c3n2)n([C@H]2CC[C@H](OCCO)CC2)c(=O)n4C)cn1` registered a half-maximal inhibitory concentration (IC50) of 8.63 nM.

On to `Cn1c(=O)n(C2CCN(C(=O)OCc3ccccc3)CC2)c2c3nc(-c4cnc5ccccc5c4)ccc3ncc21`, for which the IC50 amounted to 13.4 nM.

With `Cc1ccc(-c2ccc3ncc4c(c3n2)n(C2CCN(C(=O)CN)CC2)c(=O)n4C)cn1`, the half-inhibitory concentration (IC50) stood at 68.9 nM.

With `COc1cccc(-c2ccc3ncc4c(c3n2)n(C2CCN(C(=O)CO)CC2)c(=O)n4C)c1`, the IC50 was 30.4 nM.

For `Cc1ccc(-c2ccc3ncc4c(c3n2)n(C2CCOCC2)c(=O)n4C)cn1`, the IC50 turned out to be 27.3 nM.

The compound `CNC(=O)Nc1ccc(-c2ccc3ncc4c(c3n2)n(C2CCN(C(=O)[C@H](C)O)CC2)c(=O)n4C)cc1` came in with a 50% inhibitory concentration (IC50) of 81.5 nM.
